Structures can show the parent of a compound that is named as a salt.
Key:
complement system = details: Br. J. Exp. Pathol. 33: 327 (1952); cited from earlier work
shunt pathway = test: Test Code 036 (C-Shunt inhibitor), lysis of fragile human erythrocytes in autologous serum, cobra venom factor; format: biochemical; details: in vitro; twofold serial dilution assay, higher well number indicates higher activity
Description: (§1) An active inhibitor protects C2 from C1 and C4; (ii) Test Code 035 (C3-C9 inhibitor)--This test determines the ability of the late components of human complement (C3-C9) to lyse EAC 142 in the presence of appropriate dilutions of the test compound. An active inhibitor protects EAC 142 from lysis by human C3-C9; (iii) Test Code 036 (C-Shunt inhibitor)--In this test human erythrocytes rendered fragile are lysed in autologous serum via the shunt pathway activated by cobra venom factor in the presence of appropriate dilutions of the test compound. Inhibition of the shunt pathway results in failure of lysis; (iv) Cap 50 Test-- Here, appropriate amounts of the test compound are added to a pool of guinea pig serum in vitro, after which the undiluted serum capillary tube assay of U.S. Pat. No. 3,876,376 is run. The concentration of compound inhibiting 50% is reported; and (v) Guinea Pig Intraperitoneal Test (GPIP)--Guinea Pigs weighing about 300 g are dosed intraperitoneally (i.p.) with 200 mg/kg of the test compound dissolved in saline and adjusted to pH 7-8. […] Percent inhibition is calculated by comparison with simultaneous controls. […]

[1] = system: late components of human complement (C3-C9); test: Test Code 035 (C3-C9 inhibitor), lysis of EAC 142; format: biochemical; parameters: key: N = Negative; details: in vitro; twofold serial dilution assay
Description: as §1

activated human C1 = target: T1, activated human C1 (Homo sapiens, UniProt P09871); test: Test Code 026 (C1 inhibitor); format: biochemical; details: in vitro; twofold serial dilution assay, higher well number indicates higher activity
T1 sequence (P09871 438-688 limits assumed): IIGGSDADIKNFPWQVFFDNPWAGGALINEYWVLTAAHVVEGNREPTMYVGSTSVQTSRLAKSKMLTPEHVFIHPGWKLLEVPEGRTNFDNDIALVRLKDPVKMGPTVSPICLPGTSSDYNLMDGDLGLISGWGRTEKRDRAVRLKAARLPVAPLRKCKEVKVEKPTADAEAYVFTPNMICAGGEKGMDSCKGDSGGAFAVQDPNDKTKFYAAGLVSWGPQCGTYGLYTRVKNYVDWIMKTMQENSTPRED
T1 sequence (P09871 16-437 limits assumed): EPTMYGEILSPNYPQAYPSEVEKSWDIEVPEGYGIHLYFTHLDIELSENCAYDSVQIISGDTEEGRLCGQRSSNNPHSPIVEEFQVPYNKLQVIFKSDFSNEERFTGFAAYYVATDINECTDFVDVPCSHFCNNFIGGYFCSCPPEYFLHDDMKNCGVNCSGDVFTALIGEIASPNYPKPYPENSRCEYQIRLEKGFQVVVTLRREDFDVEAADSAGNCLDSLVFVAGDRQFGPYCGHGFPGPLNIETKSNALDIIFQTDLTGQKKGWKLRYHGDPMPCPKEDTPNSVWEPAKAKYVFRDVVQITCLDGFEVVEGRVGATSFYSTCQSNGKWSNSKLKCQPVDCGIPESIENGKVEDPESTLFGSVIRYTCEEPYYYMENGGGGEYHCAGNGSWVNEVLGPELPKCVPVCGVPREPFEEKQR
Description: as §1

complement activity = test: Guinea Pig Intraperitoneal Test (GPIP); format: in vivo, Guinea Pigs; details: 200 mg/kg i.p.
Description: An active inhibitor protects C2 from C1 and C4; (ii) Test Code 035 (C3-C9 inhibitor)--This test determines the ability of the late components of human complement (C3-C9) to lyse EAC 142 in the presence of appropriate dilutions of the test compound. An active inhibitor protects EAC 142 from lysis by human C3-C9; (iii) Test Code 036 (C-Shunt inhibitor)--In this test human erythrocytes rendered fragile are lysed in autologous serum via the shunt pathway activated by cobra venom factor in the presence of appropriate dilutions of the test compound. Inhibition of the shunt pathway results in failure of lysis; (iv) Cap 50 Test-- Here, appropriate amounts of the test compound are added to a pool of guinea pig serum in vitro, after which the undiluted serum capillary tube assay of U.S. Pat. No. 3,876,376 is run. The concentration of compound inhibiting 50% is reported; and (v) Guinea Pig Intraperitoneal Test (GPIP)--Guinea Pigs weighing about 300 g are dosed intraperitoneally (i.p.) with 200 mg/kg of the test compound dissolved in saline and adjusted to pH 7-8. Approximately 0.4 ml blood samples, taken by orbital sinus puncture 30 minutes and one hour after injections, are collected directly into centrifuge tubes; 5 ml blood samples, taken by decapitation 2 hours after injection, are collected directly into diSPo® beakers. The samples are allowed to clot, centrifuged, and the resultant sera are assayed for complement activity using the capillary complement assay. Percent inhibition is calculated by comparison with simultaneous controls. The results of the GPIP appear in Table I together with results of Test Code 026, 035, 036 and Cap 50.

[2] = system: hereditary angioneurotic edema; details: literature reports; cited from earlier work
human serum = details: both in vitro and in vivo, judged by reduction in total hemolytic complement activity; cited from earlier work

Molecule: Nc1ccc2cc(S(=O)(=O)[O-])cc(O)c2c1N=Nc1ccc(NC(=O)Nc2ccc(N=Nc3c(N)ccc4cc(S(=O)(=O)[O-])cc(O)c34)c(S(=O)(=O)[O-])c2)cc1S(=O)(=O)[O-].[Na+].[Na+].[Na+].[Na+] [chlorazol fast pink, 3,3'-ureylenebis[6-(2-amino-8-hydroxy-6-sulfo-1-naphthylazo)benzenesulfonic acid], tetrasodium salt]
- anti-complementary effect (complement system): anti-complementary effect

Molecule: O=S(=O)(O)OCC1OC(OCC2OC(COS(=O)(=O)O)(OC3OC(COC4OC(COC5OC(COS(=O)(=O)O)C(OS(=O)(=O)O)C(OS(=O)(=O)O)C5OS(=O)(=O)O)C(OS(=O)(=O)O)C(OS(=O)(=O)O)C4OS(=O)(=O)O)C(OS(=O)(=O)O)C(OS(=O)(=O)O)C3OS(=O)(=O)O)C(OS(=O)(=O)O)C2OS(=O)(=O)O)C(OS(=O)(=O)O)C(OS(=O)(=O)O)C1OC1OC(COS(=O)(=O)O)C(OC2OC(COS(=O)(=O)O)C(OS(=O)(=O)O)C(OS(=O)(=O)O)C2OS(=O)(=O)O)C(OS(=O)(=O)O)C1OS(=O)(=O)O [drawing 11, O-α-D-Galactopyranosyl(1→6)-O-α-D-galactopyranosyl(1→6)-O-α-D-glucopyranosyl(1→2)-O-β-D-fructofuranosyl(1→6)-O-α-D-glucopyranosyl(1→4)-O-α-D-glucopyranosyl-α-D-glucopyranoside, tricosakis (H-sulfate), tricosasalt with trimethylamine]
- C-Shunt Inhibition 036* Wells (shunt pathway): +5 Wells
- C-Late 035* Wells [1]: N
- Cl 026* Wells (activated human C1): +9 Wells

Molecule: O=S(=O)(O)OCC1OC(OCC2OC(COS(=O)(=O)O)(OC3OC(COC4OC(COC5OC(COS(=O)(=O)O)C(OS(=O)(=O)O)C(OS(=O)(=O)O)C5OS(=O)(=O)O)C(OS(=O)(=O)O)C(OS(=O)(=O)O)C4OS(=O)(=O)O)C(OS(=O)(=O)O)C(OS(=O)(=O)O)C3OS(=O)(=O)O)C(OS(=O)(=O)O)C2OS(=O)(=O)O)C(OS(=O)(=O)O)C(OS(=O)(=O)O)C1OC1OC(COS(=O)(=O)O)C(OC2OC(COS(=O)(=O)O)C(OS(=O)(=O)O)C(OS(=O)(=O)O)C2OS(=O)(=O)O)C(OS(=O)(=O)O)C1OS(=O)(=O)O [drawing 12, O-α-D-Galactopyranosyl(1→6)-O-α-D-galactopyranosyl(1.fwd arw.6)-O-α-D-glucopyranosyl(1→2)-O-β-D-fructofuranosyl(1→6)-O-α-D-glucopyranosyl(1→4)-O-α-D-glucopyranosyl-α-D-glucopyranoside, tricosakis (H-sulfate), tricosasodium salt]
- C-Shunt Inhibition 036* Wells (shunt pathway): +5 Wells
- C-Late 035* Wells [1]: N
- In vivo Activity (Guinea Pigs) % Inhibition Intraperitoneal, 30 minutes (complement activity; serum 30 minutes after injection): 63%
- In vivo Activity (Guinea Pigs) % Inhibition Intraperitoneal, 60 minutes (complement activity; serum 60 minutes after injection): 61%
- In vivo Activity (Guinea Pigs) % Inhibition Intraperitoneal, 120 minutes (complement activity; serum 120 minutes after injection): 67%
- Cl 026* Wells (activated human C1): +9 Wells

Molecule: NCCCCCC(=O)O [epsilon-aminocaproic acid]
- treatment of hereditary angioneurotic edema [2]: used with success

Molecule: NC[C@H]1CC[C@H](C(=O)O)CC1 [tranexamic acid]
- treatment of hereditary angioneurotic edema [2]: used with success

Molecule: heparin
- anti-complementary effect (complement system): anti-complementary effect

Molecule: pentosanpolysulfoester
- anticomplementary activity on human serum (human serum): anticomplementary activity
